# Patent publication US9095136B2, “2-IODO imidazole-derivatives” (BAYER INTELLECTUAL PROPERTY GMBH, priority 2011, dated 2015)
# Marks after values point to notes of the source that are not given here.
# How the values were obtained:
# [1] = log P by HPLC on reversed-phase columns (EEC directive 79/831 Annex V.A8); assay type: physicochemical; settings: for logP: pH 2.7
# Method: The log P values were measured according to EEC directive 79/831 Annex V.A8 by HPLC (High Performance Liquid Chromatography) on reversed-phase columns, using the methods below: […] Calibration was carried out using unbranched alkan-2-ones (having from 3 to 16 carbon atoms) with known log P values (the log P values were determined by the retention times using linear interpolation between two successive alkanones). The lambda maX values were determined in the maxima of the chromatographic signals using the UV spectra from 200 nm to 400 nm.
# Venturia inaequalis = assay: Example D: Venturia test (apple)/protective; assay type: in vivo; settings: protective, 100 ppm, evaluation 10 days after inoculation
# Method: (§1) Solvent: 24.5 parts by weight of acetone • 24.5 parts by weight of dimethylacetamide Emulsifier: 1 part by weight of alkylaryl polyglycol ether To produce a suitable preparation of active compound, 1 part by weight of active compound is mixed with the stated amounts of solvent and emulsifier, and the concentrate is diluted with water to the desired concentration. To test for protective activity, young plants are sprayed with the preparation of active compound at the stated application rate. […] The plants are then placed in a greenhouse at about 21° C. and a relative atmospheric humidity of about 90%.
# Phakopsora pachyrhizi = assay: Example F: Phakopsora test (soya beans)/protective; assay type: in vivo; settings: protective, 100 ppm, evaluation 7 days after inoculation
# Method: (§2) Solvents: 24.5 parts by weight of acetone • 24.5 parts by weight of dimethylacetamide Emulsifier: 1 part by weight of alkylaryl polyglycol ether To produce a suitable preparation of active compound, 1 part by weight of active compound is mixed with the stated amounts of solvent and emulsifier, and the concentrate is diluted with water to the desired concentration. To test for protective activity, young plants are sprayed with the preparation of active compound at the stated application rate.
# [2] = tested on: Blumeria graminis f.sp. hordei; assay: Example G: Blumeria graminis test (barley)/protective; assay type: in vivo; settings: protective, 500 ppm, evaluation 7 days after inoculation
# Method: as §2, with “Solvent: 49” for “Solvents: 24.5”, “N,N-dimethylacetamide” for “acetone • 24.5 parts by weight of dimethylacetamide”, “rate. After the spray coating has dried on, the plants are dusted with spores of Blumeria graminis f.sp. hordei.” for “rate.”
# Septoria tritici [3] = assay: Example I: Septoria tritici test (wheat)/protective; assay type: in vivo; settings: protective, 500 ppm, evaluation 21 days after inoculation
# Method: as §2, with “Solvent: 49” for “Solvents: 24.5”, “N,N-dimethylacetamide” for “acetone • 24.5 parts by weight of dimethylacetamide”, “rate. After the spray coating has dried on, the plants are sprayed with a spore suspension of Septoria tritici.” for “rate.”
# Puccinia triticina = assay: Example L: Puccinia triticina test (wheat)/protective; assay type: in vivo; settings: protective, 500 ppm, evaluation 8 days after inoculation
# Method: as §2, with “Solvent: 49” for “Solvents: 24.5”, “N,N-dimethylacetamide” for “acetone • 24.5 parts by weight of dimethylacetamide”, “rate. After the spray coating has dried on, the plants are sprayed with spores with a spore suspension of Puccinia triticina.” for “rate.”
# Botrytis cinerea = assay: Example P: preventative in vivo test with Botrytis cinerea (grey mould); settings: cucumber, 500 ppm, evaluation 4-5 days after inoculation
# Method: The active compounds tested are prepared by homogenization in a mixture of acetone/Tween/DMSO and then diluted with water to the desired active compound concentration. Cucumber plants (cultivar “Vert petit de Paris”), sown in a 50/50 peat/pozzolana soil substrate and cultivated at 24° C., are treated at the Z11 cotyledon stage by spraying with the active compound, prepared as above. As a control, plants are treated with the mixture of acetone/Tween/DMSO/water without the active compound. After 24 hours, the plants are inoculated by spraying the cotyledons with an aqueous suspension of cryogenically preserved Botrytis cinerea spores.
# Puccinia recondita [4] = assay: Example T: preventative in vivo test with Puccinia recondita (brown rust on wheat); settings: 500 ppm, evaluation 10 days after inoculation
# Method: The active compounds tested are prepared by homogenization in a mixture of acetone/Tween/DMSO and then diluted with water to the desired active compound concentration. Wheat plants (cultivar “Scipion”), sown in a 50/50 peat/pozzolana soil substrate and cultivated at 22° C. (12 h)/20° C. (12 h), are treated at the 1-leaf stage (height 10 cm) by spraying with the active compound, prepared as above. As a control, plants are treated with the mixture of acetone/Tween/DMSO/water without the active compound. After 24 hours, the plants are inoculated by spraying the leaves with an aqueous suspension of Puccinia recondita spores.
# Septoria tritici [5] = assay: Example U: preventative in vivo test with Septoria tritici (leaf blotch disease on wheat); settings: 500 ppm, evaluation 21 to 28 days after inoculation
# Method: The active compounds tested are prepared by homogenization in a mixture of acetone/Tween/DMSO and then diluted with water to the desired active compound concentration. Wheat plants (cultivar “Scipion”), sown in a 50/50 peat/pozzolana soil substrate and cultivated at 22° C. (12 h)/20° C. (12 h), are treated at the 1-leaf stage (height 10 cm) by spraying with the active compound, prepared as above. As a control, plants are treated with the mixture of acetone/Tween/DMSO/water without the active compound. After 24 hours, the plants are inoculated by spraying the leaves with an aqueous suspension of cryogenically preserved Septoria tritici spores.
# Sphaerotheca fuliginea = assay: Example V: preventative in vivo test with Sphaerotheca fuliginea (powdery mildew on cucumber); settings: 500 ppm, evaluation 12 days after inoculation
# Method: The active compounds tested are prepared by homogenization in a mixture of acetone/Tween/DMSO and then diluted with water to the desired active compound concentration. Cucumber plants (cultivar “Vert petit de Paris”), sown in a 50/50 peat/pozzolana soil substrate and cultivated at 24° C., are treated at the Z11 cotyledon stage by spraying with the active compound, prepared as above. As a control, plants are treated with the mixture of acetone/Tween/DMSO/water without the active compound. After 24 hours, the plants are inoculated by spraying the leaves with an aqueous suspension of Sphaerotheca fuliginea spores. The inoculated cucumber plants are incubated at about 20° C./25° C. and a relative atmospheric humidity of 60/70%.
# Uromyces appendiculatus [6] = assay: Example W: preventative in vivo test with Uromyces appendiculatus (bean rust); settings: 500 ppm, evaluation 10 days after inoculation
# Method: The active compounds tested are prepared by homogenization in a mixture of acetone/Tween/DMSO and then diluted with water to the desired active compound concentration. Bean plants (cultivar “Saxa”), sown in a 50/50 peat/pozzolana soil substrate and cultivated at 24° C., are treated at the 2-leaf stage (height 9 cm) by spraying with the active compound, prepared as above. As a control, plants are treated with the mixture of acetone/Tween/DMSO/water without the active compound. After 24 hours, the plants are inoculated by spraying the leaves with an aqueous suspension of Uromyces appendiculatus spores.
# Pyricularia oryzae [7] = assay type: in vivo; settings: rice, protective, 500 ppm, evaluation 7 days after inoculation
# Puccinia recondita [8] = assay: Example X: Puccinia test (wheat)/protective, comparison; assay type: in vivo; settings: protective, application rate 500 ppm, evaluation 7-9 days after inoculation
# Method: as §2, with “Solvent: 49” for “Solvents: 24.5”, “N,N-dimethylformamide” for “acetone • 24.5 parts by weight of dimethylacetamide”, “rate. One day after this treatment, the plants are inoculated with an aqueous spore suspension of Puccinia recondita.” for “rate.”
# Uromyces appendiculatus [9] = assay: Example E: Uromyces test (bean)/protective; assay type: in vivo; settings: protective, 10 ppm, evaluation 10 days after inoculation
# Method: as §1, with “Solvents:” for “Solvent:”
# Alternaria brassicae = assay: Example O: preventative in vivo test with Alternaria brassicae (leaf spot on radish); settings: 500 ppm, evaluation 5 days after inoculation
# Method: The active compounds tested are prepared by homogenization in a mixture of acetone/Tween/DMSO and then diluted with water to the desired active compound concentration. Radish plants (cultivar “Pernod Clair”), sown in a 50/50 peat/pozzolana soil substrate and cultivated at 17° C., are treated at the 2-leaf stage by spraying with the active compound, prepared as above. As a control, plants are treated with the mixture of acetone/Tween/DMSO/water without the active compound. After 24 hours, the plants are inoculated by spraying the leaves with an aqueous suspension of Alternaria brassicae spores.
# Pyrenophora teres = assay: Example R: preventative in vivo test with Pyrenophora teres (net blotch on barley); settings: 500 ppm, evaluation 12 days after inoculation
# Method: The active compounds tested are prepared by homogenization in a mixture of acetone/Tween/DMSO and then diluted with water to the desired active compound concentration. Barley plants (cultivar “Plaisant”), sown in a 50/50 peat/pozzolana soil substrate and cultivated at 22° C. (12 h)/20° C. (12 h), are treated at the 1-leaf stage (height 10 cm) by spraying with the active compound, prepared as above. As a control, plants are treated with the mixture of acetone/Tween/DMSO/water without the active compound. After 24 hours, the plants are inoculated by spraying the leaves with an aqueous suspension of Pyrenophora teres spores.
# Pyricularia oryzae [10] = assay type: in vivo; settings: rice, preventative, 500 ppm, evaluation 6 days after inoculation
# Uromyces appendiculatus [11] = assay: Example Y: Uromyces test (beans)/protective, comparison; assay type: in vivo; settings: protective, application rate 10 ppm, evaluation 10 days after inoculation
# Method: as §1, with “Solvents:” for “Solvent:”
# Septoria tritici [12] = assay: Example Z: Septoria tritici test (wheat)/protective, comparison; assay type: in vivo; settings: protective, application rate 250 ppm, evaluation 21 days after inoculation
# Method: Solvent: 49 parts by weight of N,N-dimethylacetamide Emulsifier: 1 part by weight of alkylaryl polyglycol ether To produce a suitable preparation of active compound, 1 part by weight of active compound or active compound combination is mixed with the stated amounts of solvent and emulsifier, and the concentrate is diluted with water to the desired concentration. To test for protective activity, young plants are sprayed with the preparation of active compound or active compound combination at the stated application rate. After the spray coating has dried on, the plants are sprayed with a spore suspension of Septoria tritici.
smiles,measurement,setting,value
"Fc1ccc([C@]2(Cn3ccnc3I)O[C@H]2c2ccccc2Cl)c(F)c1 (relative stereo) [Example 14, rel-1-{[(2R,3S)-3-(2-chlorophenyl)-2-(2,4-difluorophenyl)oxiran-2-yl]methyl}-2-iodo-1H-imidazole]",chromatographic logP,"[1]; pH 2.7, log P(HCOOH)",3.23
same,chromatographic logP,"[1]; pH 2.7, logP",3.23
same,Eff. %,Venturia inaequalis,100%
same,Eff. %,Phakopsora pachyrhizi,100%
same,Eff. %,[2],90%
same,Eff. %,Septoria tritici [3],100%
same,Eff. %,Puccinia triticina,100%
same,Efficacy %,Botrytis cinerea,97%
same,Efficacy %,Puccinia recondita [4],93%
same,Efficacy %,Septoria tritici [5],100%
same,Efficacy %,Sphaerotheca fuliginea,100%
same,Efficacy %,Uromyces appendiculatus [6],100%
CC(C)(C)C(O)(CCc1ccc(Cl)cc1)Cn1ccnc1I (stereo not shown) [Example 4],Eff. %,Pyricularia oryzae [7],80%
same,Efficacy in %,Puccinia recondita [8],95%
Fc1ccc(C2(Cn3ccnc3I)OC2c2ccccc2Cl)cc1 (stereo not shown) [Example 8],logP,[1],3.09^[a]
same,Eff. %,Venturia inaequalis,100%
same,Eff. %,Uromyces appendiculatus [9],100%
same,Eff. %,Phakopsora pachyrhizi,99%
same,Efficacy %,Alternaria brassicae,88%
same,Efficacy %,Pyrenophora teres,79%
same,Efficacy %,Pyricularia oryzae [10],75%
same,Efficacy %,Puccinia recondita [4],97%
same,Efficacy %,Septoria tritici [5],100%
same,Efficacy %,Sphaerotheca fuliginea,100%
same,Efficacy %,Uromyces appendiculatus [6],100%
Fc1cc(Cl)ccc1C1(Cn2ccnc2I)OC1c1ccccc1Cl (stereo not shown) [Example 11],logP,[1],3.7^[a]
same,Efficacy %,Botrytis cinerea,92%
same,Efficacy %,Puccinia recondita [4],93%
same,Efficacy %,Septoria tritici [5],100%
same,Efficacy %,Sphaerotheca fuliginea,100%
same,Efficacy %,Uromyces appendiculatus [6],97%
"OC(Cc1ccc(F)cc1)(Cn1ccnc1)C1(Cl)CC1 (stereo not shown) [drawing 19, reference compound]",Efficacy in %,Uromyces appendiculatus [11],65%
"OC(Cc1ccc(F)cc1)(Cn1ccnc1)C1(Cl)CC1 (stereo not shown) [drawing 21, reference compound]",Efficacy in %,Septoria tritici [12],43%
CC(C)(C)C(O)(CCc1ccc(Cl)cc1)Cn1ccnc1 (stereo not shown) [reference compound],Efficacy in %,Puccinia recondita [8],70%
